Results from ChEMBL document CHEMBL1177853, “Synthesis and pharmacological evaluation of novel substituted 9-deazaxanthines as A2B receptor antagonists” (Eur J Med Chem, 2010).

Tests used:
Adenosine receptor A2a [1] = molecular target: T1, Adenosine receptor A2a (Homo sapiens, UniProt P29274); experiment: Displacement of [3H]ZM241385 from human recombinant adenosine A2A receptor expressed in human HeLa cells at 1 uM after 30 mins; assay type: cell-based
Adenosine receptor A2b = molecular target: T2, Adenosine receptor A2b (Homo sapiens, UniProt P29275); experiment: Displacement of [3H]DPCPX from human recombinant adenosine A2B receptor expressed in HEK293 cells after 30 mins; assay type: cell-based
T2 sequence (P29275 whole entry): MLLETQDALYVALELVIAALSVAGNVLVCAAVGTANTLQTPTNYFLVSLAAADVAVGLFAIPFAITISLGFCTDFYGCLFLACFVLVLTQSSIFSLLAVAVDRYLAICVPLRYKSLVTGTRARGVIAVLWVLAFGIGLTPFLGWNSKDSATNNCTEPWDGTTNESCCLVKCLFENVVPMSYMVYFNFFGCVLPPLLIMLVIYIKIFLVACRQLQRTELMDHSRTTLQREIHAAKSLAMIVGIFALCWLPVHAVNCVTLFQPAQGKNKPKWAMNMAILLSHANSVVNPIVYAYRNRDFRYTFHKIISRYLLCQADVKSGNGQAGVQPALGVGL

[2] = molecular target: T3, Adenosine receptor A3 (Homo sapiens) (UniProt P0DMS8); experiment: Displacement of [3H]NECA from human recombinant adenosine A3 receptor expressed in human HeLa cells at 1 uM after 180 mins by scintillation counting; assay type: cell-based
T3 sequence (whole entry): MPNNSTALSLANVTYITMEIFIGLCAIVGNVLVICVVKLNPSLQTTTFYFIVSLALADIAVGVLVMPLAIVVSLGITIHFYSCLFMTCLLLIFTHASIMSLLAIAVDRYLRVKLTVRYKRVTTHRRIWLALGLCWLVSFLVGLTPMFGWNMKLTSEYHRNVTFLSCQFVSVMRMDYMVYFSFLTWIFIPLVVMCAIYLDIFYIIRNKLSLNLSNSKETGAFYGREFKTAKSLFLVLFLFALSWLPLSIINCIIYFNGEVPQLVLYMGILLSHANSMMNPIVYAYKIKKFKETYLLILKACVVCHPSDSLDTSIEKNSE

[3] = molecular target: T4, Adenosine receptor A1 (Homo sapiens) (UniProt P30542); experiment: Displacement of [3H]DPCPX from human recombinant adenosine A1 receptor expressed in CHO-A1 cells at 1 uM after 60 mins; assay type: cell-based
T4 sequence (whole entry): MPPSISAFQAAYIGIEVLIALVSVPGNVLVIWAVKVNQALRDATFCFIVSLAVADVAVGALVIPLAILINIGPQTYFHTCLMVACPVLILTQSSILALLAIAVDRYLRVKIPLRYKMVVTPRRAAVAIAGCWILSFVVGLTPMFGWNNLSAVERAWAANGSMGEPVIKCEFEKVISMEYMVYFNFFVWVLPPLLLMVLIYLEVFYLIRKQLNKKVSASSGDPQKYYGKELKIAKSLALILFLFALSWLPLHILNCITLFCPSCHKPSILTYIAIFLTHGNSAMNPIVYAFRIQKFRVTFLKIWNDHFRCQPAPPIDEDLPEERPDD

[4] = molecular target: T5, Adenosine receptor A2b (Homo sapiens) (UniProt P29275); experiment: Displacement of [3H]DPCPX from human recombinant adenosine A2B receptor expressed in HEK293 cells at 1 uM after 30 mins; assay type: cell-based
T5 sequence (whole entry): T2 sequence (P29275 whole entry)

Adenosine receptor A1 = molecular target: T6, Adenosine receptor A1 (Homo sapiens, UniProt P30542); experiment: Displacement of [3H]DPCPX from human recombinant adenosine A1 receptor expressed in CHO-A1 cells after 60 mins; assay type: cell-based
T6 sequence (P30542 whole entry): T4 sequence (whole entry)

Homo sapiens [5] = species on record: Homo sapiens; experiment: Selectivity ratio of Ki for human recombinant adenosine A2B receptor to Ki for human recombinant adenosine A1 receptor
Adenosine receptor A2a [6] = molecular target: T1, Adenosine receptor A2a; experiment: Displacement of [3H]ZM241385 from human recombinant adenosine A2A receptor expressed in human HeLa cells after 30 mins; assay type: cell-based
Homo sapiens [7] = species on record: Homo sapiens; experiment: Selectivity ratio of Ki for human recombinant adenosine A2B receptor to Ki for human recombinant adenosine A2A receptor

T1 sequence (P29274 whole entry): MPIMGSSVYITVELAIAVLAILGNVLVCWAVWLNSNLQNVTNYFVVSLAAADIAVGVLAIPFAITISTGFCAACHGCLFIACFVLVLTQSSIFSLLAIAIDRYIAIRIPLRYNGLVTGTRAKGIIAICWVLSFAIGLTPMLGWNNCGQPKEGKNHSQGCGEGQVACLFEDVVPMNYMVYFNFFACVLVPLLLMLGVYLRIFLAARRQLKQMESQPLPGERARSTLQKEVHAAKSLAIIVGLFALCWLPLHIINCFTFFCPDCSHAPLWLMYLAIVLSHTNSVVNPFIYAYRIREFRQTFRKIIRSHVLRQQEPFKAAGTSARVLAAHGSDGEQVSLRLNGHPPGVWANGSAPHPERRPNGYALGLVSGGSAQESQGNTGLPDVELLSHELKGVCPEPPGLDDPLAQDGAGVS

inhibition (Adenosine receptor A2a [1]) [%]	Ki (Adenosine receptor A2b) [nM]	inhibition [2] [%]	inhibition [3] [%]	inhibition [4] [%]	Ki (Adenosine receptor A1) [nM]	Ratio pKi (Homo sapiens [5])	Ki (Adenosine receptor A2a [6]) [nM]	Ratio pKi (Homo sapiens [7])	SMILES
12	79.4	1	9	–	–	–	–	–	CCCn1c(=O)[nH]c(=O)c2[nH]c(-c3ccc(OCC(=O)N4CCc5ccccc5C4)cc3)cc21
22	–	2	22	36	–	–	–	–	CCCn1c(=O)c2c(cc(-c3ccc(OCC(=O)N4CCN(c5ccccc5)CC4)cc3)n2C)n(CCC)c1=O
–	2.34	2	–	–	75.9	32.4	6460	2750	CCCn1c(=O)[nH]c2cc(-c3ccc(OCC(=O)Nc4ccc(F)cc4)cc3)[nH]c2c1=O
33	115	15	23	–	–	–	–	–	CCCn1c(=O)[nH]c(=O)c2[nH]c(-c3ccc(OCC(=O)N4CCN(c5ccccc5)CC4)cc3)cc21
17	1050	1	0.5	–	–	–	–	–	CCCn1c(=O)[nH]c(=O)c2[nH]c(-c3ccc(OCC(=O)Nc4ccccc4)cc3)cc21
15	–	1	9	20	–	–	–	–	CCCn1c(=O)c2c(cc(-c3ccc(OCC(=O)Nc4ccc(F)cc4)cc3)n2C)n(CCC)c1=O
11	30.9	6	–	–	–	5.89	–	–	CCCn1c(=O)c2c(cc(-c3ccc(OCC(=O)Nc4ccc(F)cc4)cc3)n2C)n(C)c1=O
–	40.7	3	36	–	182	–	708	17.4	COc1cc(OCc2nc(-c3ccc(Br)cc3)no2)ccc1-c1cc2c([nH]1)c(=O)n(C)c(=O)n2C
11	31.6	2	21	–	–	–	–	–	CCCn1c(=O)[nH]c2cc(-c3ccc(OCc4nc(-c5ccc(Br)cc5)no4)cc3)[nH]c2c1=O
43	3.55	14	–	–	1.74	0.49	–	–	CCCn1c(=O)[nH]c2cc(-c3ccc(OCC(=O)Nc4ccc(Br)cc4)cc3)[nH]c2c1=O
36	100	3	2	–	–	–	–	–	CCCn1c(=O)[nH]c(=O)c2[nH]c(-c3ccc(OCC(=O)Nc4ccc(F)cc4)cc3)cc21
29	97.7	9	19	–	–	–	–	–	CCCn1c(=O)c2c(cc(-c3ccc(OCC(=O)N4CCc5ccccc5C4)cc3)n2C)n(CCC)c1=O
22	21.9	28	41	–	–	–	–	–	CCCn1c(=O)[nH]c(=O)c2[nH]c(-c3ccc(OCC(=O)Nc4ccc(Br)cc4)cc3)cc21
